Experimental findings from patent US20080249105A1, “Pyrrolopyridine-Substituted Benzol Derivatives for Treating Cardiovascular Diseases” (Bayer Healthcare AG, priority 2003, published 2008) are described below.

This assay deals with T1, Rho kinase II (ROKα) (Rattus norvegicus, UniProt Q62868).
T1 construct: purchased Upstate Biotechnology
T1 sequence (Q62868 whole entry): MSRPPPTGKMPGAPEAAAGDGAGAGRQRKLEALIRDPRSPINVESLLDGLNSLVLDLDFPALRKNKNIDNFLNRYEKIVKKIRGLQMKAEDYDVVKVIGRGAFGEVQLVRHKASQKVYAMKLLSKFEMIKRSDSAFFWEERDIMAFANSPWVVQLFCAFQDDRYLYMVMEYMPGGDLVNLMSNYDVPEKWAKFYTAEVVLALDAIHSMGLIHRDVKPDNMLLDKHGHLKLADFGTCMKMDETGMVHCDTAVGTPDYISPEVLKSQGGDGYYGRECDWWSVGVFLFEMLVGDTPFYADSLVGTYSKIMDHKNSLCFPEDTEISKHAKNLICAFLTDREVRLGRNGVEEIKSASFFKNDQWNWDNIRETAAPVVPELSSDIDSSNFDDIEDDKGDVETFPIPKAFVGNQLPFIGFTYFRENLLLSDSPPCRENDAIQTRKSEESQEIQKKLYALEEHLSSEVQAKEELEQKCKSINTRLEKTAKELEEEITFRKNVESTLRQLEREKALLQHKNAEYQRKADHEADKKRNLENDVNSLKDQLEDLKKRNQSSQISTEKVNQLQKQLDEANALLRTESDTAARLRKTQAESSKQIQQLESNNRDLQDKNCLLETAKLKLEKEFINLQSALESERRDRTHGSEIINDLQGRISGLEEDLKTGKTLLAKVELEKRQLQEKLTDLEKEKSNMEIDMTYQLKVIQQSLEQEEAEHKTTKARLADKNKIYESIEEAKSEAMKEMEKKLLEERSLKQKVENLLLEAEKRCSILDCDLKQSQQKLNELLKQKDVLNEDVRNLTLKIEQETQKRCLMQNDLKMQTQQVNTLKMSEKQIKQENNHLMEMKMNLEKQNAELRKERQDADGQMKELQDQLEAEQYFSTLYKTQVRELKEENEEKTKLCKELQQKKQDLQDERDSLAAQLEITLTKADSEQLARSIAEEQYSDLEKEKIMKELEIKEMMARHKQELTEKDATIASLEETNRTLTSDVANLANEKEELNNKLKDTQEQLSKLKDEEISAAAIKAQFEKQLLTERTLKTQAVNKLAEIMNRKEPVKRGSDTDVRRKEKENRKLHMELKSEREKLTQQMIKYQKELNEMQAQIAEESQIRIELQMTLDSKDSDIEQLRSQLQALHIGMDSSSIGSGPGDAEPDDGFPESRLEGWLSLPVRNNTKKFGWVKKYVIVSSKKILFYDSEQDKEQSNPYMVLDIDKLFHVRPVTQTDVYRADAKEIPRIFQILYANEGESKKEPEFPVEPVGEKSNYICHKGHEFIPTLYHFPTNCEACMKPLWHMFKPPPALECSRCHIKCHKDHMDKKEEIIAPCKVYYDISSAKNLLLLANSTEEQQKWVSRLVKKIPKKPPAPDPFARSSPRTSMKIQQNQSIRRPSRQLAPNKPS
The assay can be described thus: Inhibition of recombinant Rho kinase II (ROKα), 33P phosphate uptake into S6 substrate peptide. In kind it is biochemical. To be noted: recombinant Rho kinase II (Upstate Biotechnology), S6 phosphate-acceptor peptide, 33P-labelled ATP, 20 min at 37° C. On the procedure:
The inhibition of the enzyme is investigated in an in vitro assay with recombinant Rho kinase II. The vessel-relaxing action is determined using phenylephrin-induced contractions of isolated rings of the saphenous artery of rabbits.
Inhibition of Recombinant Rho Kinase II (ROKα)
The activity of Rho kinase is determined by the uptake of ^33P phosphate into a substrate peptide. To this end, commercially available Rho kinase II (Upstate Biotechnology) is pre-incubated at 37° C. in the presence of the S6 phosphate-acceptor peptide with the test substances or a solvent control for 10 min. The kinase reaction is then started by addition of ^33P-labelled ATP. After 20 min at 37° C., the reaction is stopped by addition of H3PO4. Aliquots are pipetted onto filters and the filters are washed and then covered with scintillator. The radioactivity of the ^33P-labelled peptides bound to the filter is measured in a Micro-Beta counter. The IC50 value corresponds to the concentration of a test substance at which the Rho-kinase-catalysed uptake of ^33P into the peptide is inhibited by 50%, compared to a solvent control.
On to `CN(C)CCOC(=O)Nc1ccc(Oc2ccnc3[nH]ccc23)c(F)c1` [Example 41], for which the IC50 worked out at 20 nM.

With `Cc1c[nH]c2nccc(Oc3ccc(NC(=O)CNC(C)(C)C)cc3F)c12` [Example 23], the IC50 was 12 nM.

On to `CN(C)CCNC(=O)Nc1ccc(Oc2ccnc3[nH]ccc23)c(F)c1` [Example 40], for which the IC50 turned out to be 27 nM.

`CC(C)(C)NCc1ccc(C(=O)Nc2ccc(Oc3ccnc4[nH]ccc34)c(F)c2)cc1` [Example 15]: the IC50 was 49 nM.
